Legend:
[1] = Oxygen Radical Absorbance Capacity (ORAC) assay, antioxidant activity; format: biochemical; conditions: individual avenanthramides
Protocol: To test the effect of varying avenanthramide ratios on antioxidant activity and inflammation in vitro, the inventors created an avenanthramide ingredient from pure avenanthramides which had similar ratios of avenanthramides 2c:2p:2f as was present in each of the three different oat fractions: hulls, flour, and trichomes. Thereafter, antioxidant activity was measured using the ORAC assay and anti-inflammatory effect was measured using an NF-κB inhibitory assay.
The first avenanthramide ingredient was created from 2c:2p:2f having a ratio of about 1:1:1, which corresponded to the concentration present in oat hulls. The second avenanthramide ingredient had avenanthramides 2c:2p:2f having a ratio of about 1:1:2, which corresponded to the concentration present in oat flour. Finally, the last avenanthramide ingredient tested had 2c:2p:2f in a ratio of about 1:2:2, which corresponded to the concentration present in oat trichomes. An ORAC assay was used to measure the antioxidant activity of each of these avenanthramide ingredients and the results are presented in Table 1.

[2] = Peterson et al., 2001; cited from earlier work

O=C(/C=C/c1ccc(O)cc1)Nc1ccc(O)cc1C(=O)O [Avenanthramide 2p, avenanthramide 2p]
ORAC [1]: 18504.33 B TE/g

O=C(/C=C/c1ccc(O)c(O)c1)Nc1ccc(O)cc1C(=O)O [Avenanthramide 2c, avenanthramide 2c]
ORAC [1]: 33741.00 A* TE/g | antioxidant activity in vitro [2]: highest antioxidant activity

COc1cc(/C=C/C(=O)Nc2ccc(O)cc2C(=O)O)ccc1O [Avenanthramide 2f, avenanthramide 2f]
ORAC [1]: 21812.67 B TE/g
